Data set [1] has as its system NCI-H2122 (KRAS^G12C) NSCLC xenograft. The data set is described as follows: Anti-tumor efficacy in NCI-H2122 NSCLC xenograft tumor model. The data set is classed as in vivo, nude mice. The procedure:
Anti-VEGFA 620.4.1.1 (Mu anti-VEGFA 620.4.1.1; hereafter referred to as anti-VEGF) was a solution in Histidine Buffer ([…], 0.02% Tween 20™, pH5.5). […] The anti-gD isotype control (Hu anti-gD 5B6; hereafter referred to as Isotype Control) was a solution in saline. […] The mice were housed in standard rodent micro-isolator cages and were acclimated to study conditions at least 3 days before tumor cell implantation. Only animals that appeared to be healthy and that were free of obvious abnormalities were used for the study. Human non-small lung carcinoma NCI-H2122 cells were obtained from the American Type Culture Collection (Rockville, MD) and harbor a G12C oncogenic mutation in K-RAS. […] Mice were distributed into four groups based on tumor volumes with n=10 mice per group. […] The isotope control and anti-VEGF antibodies were administered intravenously (IV) at 10 mg/kg for the first dose, and then dosed intraperitoneally (IP) at 5 mg/kg for subsequent doses on a twice weekly (BIW) schedule. Tumor sizes and mouse body weights were recorded twice weekly over the course of the study. […] Fred V. Fowler Co.; Newton, MA) and analyzed using Excel, version 14.2.5 (Microsoft Corporation; Redmond WA). […] A generalized additive mixed model (GAMM) was employed to analyze transformed tumor volumes over time as this approach addresses both repeated measurements from the same study subjects and modest dropouts before study end (Lin et al. Wiley Online Library; 1999; 61:381-400 and Liang Biometrical Journal. Wiley Online Library; 2005; 47:358-68). […] Estimates of efficacy were obtained by calculating the percent difference between the daily average baseline-corrected AUC of the relevant group fits on the original (i.e., untransformed) scale over a common time period.

In data set [2] the test system is KRAS^G12C-positive cancer cell lines. The data set is described as follows: Growth inhibition of KRAS^G12C-positive versus KRAS^G12C-negative cancer cell lines. It counts as cell-based.
Data set [3] in a line: Risks associated with administration of study drugs. It counts as in vivo. The following applies: Compound 1. An excerpt: Risks Associated with Compound 1.
Risks Associated with Bevacizumab.

For data set [4] the following is noted: bevacizumab; cited from earlier work.
The mark [5] stands for this setting: number of mice of n=10, same dosing, 21 days.

“And” between values parts separate entries of the source, which are not always exact repeats. Equal entries are not always repeated. Where two headings read alike, the source gives them in different places.

Consider two compounds from patent US12016862B2, “Methods and compositions comprising a KRasG12C inhibitor and a VEGF inhibitor for treating solid tumors” (Genentech, Inc., priority 2020, dated 2024).

As to `C=CC(=O)N1CCN(c2nc(OC[C@@H]3CCCN3C)nc3c(F)c(-c4nc(N)cc(C)c4C(F)(F)F)c(Cl)cc23)[C@@H](C)C1` (atropisomer, axis not shown) [Compound 1], in data set [1] (NCI-H2122 xenografts in nude mice, n=10, Compound 1 50 mg/kg PO QD, anti-VEGF 10 mg/kg IV first dose then 5 mg/kg IP BIW, 21 days, based on AUC, relative to vehicle controls), the “% TGI (estimated)” value is listed as 98%. The “mice showing reductions in initial tumor size” value in data set [1] (initial tumor response, n=10 per group) turned out to be 50%. Besides, the “TI (tumor incidence)” value in data set [1] (n=10 per group, same dosing, 21 days) is 10/10. Besides, in data set [1] (setting [5]), the “CR (complete responses, 100% decrease in tumor volume)” value amounted to 0; the “PR (partial responses, >50% decrease from the initial tumor volume)” value is 2/10 and 2. For the same compound, the “anti-tumor effect in words” value in data set [1] (single agent treatment) is reported as “tumor stasis”. Besides, the “mice showing increases in tumor volume” value in data set [1] (within the first week of treatment, of 10 mice) was 5/10. The “selectivity in growth inhibition for KRAS^G12C-positive over KRAS^G12C-negative cancer cell lines” value in data set [2] is “over 20,000 fold”. Further, the “risks associated with administration” value in data set [3] was “diarrhea, nausea, vomiting, oral mucosal irritation, minimal to mild transaminase elevation, and phototoxicity”.

With “Bevacizumab: recombinant humanized anti-VEGF monoclonal antibody generated according to Presta et al.”, the “risks associated with administration” value in data set [4] is “gastrointestinal perforations, surgery and wound healing complications, hemorrhage”.
